# Data taken from patent US6750012B1, “Method of identifying a psychotropic agent using differential gene expression” (CuraGen Corporation, priority 1998, dated 2004).
# Assays:
# HALO22, NGFI-B [U17254] = assay: GENECALLING differential gene expression, striatum of haloperidol-treated rats; type: in vivo, rat
# Protocol: (§1) Accordingly, the differentially expressed genes were identified by treating Wistar rats with haloperidol (0.041 mg/kg/d for 3 days via continuous infusion Alza pump), or rats treated with vehicle only for 3 days.
# (§2) Rats were then sacrificed, their brains were removed, and total RNA was recovered from the microdissected striatum. cDNA was prepared and the resulting samples were processed through 140 subsequences of GENECALLING™ differential expression analysis as described in U.S. Pat. No. 5,871,697 and in Shimkets et al., Nature Biotechnology 17:198-803 (1999).
# (§3) 101 gene fragments were initially found to be differentially expressed in rat striatum in response to haloperidol. The differential expression of 50 of the gene fragments was confirmed using a unlabeled oligonucleotide competition assay as described in Shimkets et al., Nature Biotechnology 17:198-803. 32 single copy nucleic acid sequences genes and 5 repetitive copy nucleic acid sequences differentially expressed in haloperidol and vehicle treated striatum were selected for further analysis elements.
# [1] = system: HALO8, novel gene fragment, 91% similar to mouse phosphatidylinositol 3 kinase 110 kDa subunit [U03279]; assay: as above; type: in vivo, rat
# Protocol: as §1, §2, §3
# [2] = system: HALO35, Synaptophysin [p38]; assay: as above; type: in vivo, rat; settings: present studies
# Protocol: as §1, §2, §3
# [3] = system: HALO20, Inositol 1.4.5-triphosphate 3-kinase [M29787]; assay: as above; type: in vivo, rat
# Protocol: as §1, §2, §3
# [4] = system: HALO19, Ribosomal protein L18a [X14181]; assay: as above; type: in vivo, rat
# Protocol: as §1, §2, §3
# [5] = system: L1 retrotransposon ORF2 (HALO29 in Table 1, HALO32 in text); assay: as above; type: in vivo, rat
# Protocol: as §1, §2, §3
# [6] = system: HALO23, Neurogranin [L09119]; assay: as above; type: in vivo, rat
# Protocol: as §1, §2, §3
# [7] = system: HALO7, novel gene fragment, 86% similar to human U1 snRNP 70 kDa protein; assay: as above; type: in vivo, rat
# Protocol: as §1, §2, §3
# [8] = system: HALO11, novel gene fragment, 88% similar to human KIAA0383 gene [AB002381]; assay: as above; type: in vivo, rat
# Protocol: as §1, §2, §3
# [9] = system: HALO16, novel gene fragment, 70% similar to E. coli putative ATP-dependent RNA helicase RHLB [P24229]; assay: as above; type: in vivo, rat
# Protocol: as §1, §2, §3
# [10] = system: HALO28, Stomach nonmuscle Ca^+2 ATPase [J04023]; assay: as above; type: in vivo, rat
# Protocol: as §1, §2, §3
# [11] = system: HALO10, novel gene fragment, 89% similar to human rab5c-like protein [U11293]; assay: as above; type: in vivo, rat
# Protocol: as §1, §2, §3
# [12] = system: HALO1, novel gene fragment, 86 bp; assay: as above; type: in vivo, rat
# Protocol: as §1, §2, §3
# [13] = system: HALO21, 2′-3′ cyclic nucleotide 3′ phosphodiesterase [CNPII] [L16532]; assay: as above; type: in vivo, rat
# Protocol: as §1, §2, §3
# HALO33, NGF1-A = assay: as above; type: in vivo, rat
# Protocol: as §1, §2, §3
# HALO26, Cathepsin S = assay: as above; type: in vivo, rat
# Protocol: as §1, §2, §3
# [14] = system: HALO6, novel gene fragment, 95% similarity to mouse quaking gene type 1 [U44940]; assay: as above; type: in vivo, rat
# Protocol: as §1, §2, §3
# [15] = system: L1 retrotransposon mIvi2-rn38 (HALO32 in Table 1, HALO31 in text); assay: as above; type: in vivo, rat
# Protocol: as §1, §2, §3
# [16] = system: HALO13, novel gene fragment, 80% similar to human suilisol [L26247]; assay: as above; type: in vivo, rat
# Protocol: as §1, §2, §3
# [17] = system: HALO18, novel gene fragment, encoded polypeptide 80% similar to human predicted protein DJ257A7.1 [AL008729]; assay: as above; type: in vivo, rat
# Protocol: as §1, §2, §3
# [18] = system: HALO9, novel gene fragment, 98% similar to mouse meis2 [U57343]; assay: as above; type: in vivo, rat
# Protocol: as §1, §2, §3
# [19] = system: HALO25, 190 kDa ankyrin isoform; assay: as above; type: in vivo, rat
# Protocol: as §1, §2, §3
# HALO24, V-1 protein = assay: as above; type: in vivo, rat
# Protocol: as §1, §2, §3
# [20] = system: HALO17, novel gene fragment, 65% similarity to 5′ region of human NOF1 [U39400]; assay: as above; type: in vivo, rat
# Protocol: as §1, §2, §3
# HALO34, JunB [X54686] = assay: as above; type: in vivo, rat
# Protocol: as §1, §2, §3
# [21] = system: HALO2, novel gene fragment, 121 bp; assay: as above; type: in vivo, rat
# Protocol: as §1, §2, §3
# [22] = system: Long interspersed repetitive DNA containing 7 ORFs (HALO31 in Table 1, HALO30 in text); assay: as above; type: in vivo, rat
# Protocol: as §1, §2, §3
# [23] = system: long interspersed repetitive DNA sequence LINE3 (HALO30 in Table 1, HALO29 in text); assay: as above; type: in vivo, rat
# Protocol: as §1, §2, §3
# [24] = system: HALO27, D-Amino acid oxidase; assay: as above; type: in vivo, rat
# Protocol: as §1, §2, §3
# rats = assay: Motor disturbances in rats treated for 28 days; type: in vivo, rat
# Inisotaol monophsphates = settings: 4-6 weeks following administration, decanoate dosing; cited from earlier work
# sigma receptors = settings: Seth et al, J Neurochem 70; cited from earlier work
# [25] = system: HALO5, novel gene fragment, 539 bp; assay: GENECALLING differential gene expression, striatum of haloperidol-treated rats; type: in vivo; settings: Wistar rat striatum, 0.041 mg/kg/d for 3 days continuous infusion, vs vehicle
# Protocol: as §1, §2, §3
# [26] = system: HALO12, rat novel gene fragment, 83% homologous to mouse EGF repeat transmembrane protein; assay: as above; type: in vivo
# Protocol: as §1, §2, §3
# [27] = system: HALO4, novel gene fragment, 649 bp; assay: as above; type: in vivo; settings: Wistar rat striatum, 0.041 mg/kg/d for 3 days continuous infusion, vs vehicle
# Protocol: as §1, §2, §3
# [28] = system: HALO14, novel gene fragment, 72% similar to rat repetitive ribosomal DNA II 3′ to 45S pre-rRNA [X02822]; assay: as above; type: in vivo
# Protocol: as §1, §2, §3
# [29] = system: HALO15, novel gene fragment, 97% similar to mouse gene fragment with 44% amino acid similarity to human sorting nexin-2; assay: as above; type: in vivo; settings: Wistar rat striatum, 0.041 mg/kg/d for 3 days continuous infusion, vs vehicle
# Protocol: as §1, §2, §3
# [30] = system: HALO3, rat novel gene fragment, 495 bp; assay: as above; type: in vivo; settings: Wistar rat striatum, 0.041 mg/kg/d for 3 days continuous infusion, vs vehicle
# Protocol: as §1, §2, §3
# [31] = Wistar rat striatum, 0.041 mg/kg/d for 3 days continuous infusion, vs vehicle
# [32] = haloperidol-treated rats, striatum
# [33] = haloperidol-treated rats, striatum, present studies
structure (smiles),measurement,setting,value
O=C(CCCN1CCC(O)(c2ccc(Cl)cc2)CC1)c1ccc(F)cc1 [haloperidol],Haloperidol Effect on Transcript Level: HALO22 NGFI-B,"HALO22, NGFI-B [U17254]; [31]",+2.4
same,NGFI-B expression increased (under heading HALO22),"HALO22, NGFI-B [U17254]; [32]",2.4 fold
same,Haloperidol Effect on Transcript Level: HALO8,[1]; [31],−2
same,HALO8 expression diminished,[1]; [32],2 fold
same,HALO35 (synaptophysin) expression varied,[2],~1 fold
same,Haloperidol Effect on Transcript Level: HALO20 Inositol 1.4.5-triphosphate 3-kinase,[3]; [31],+2
same,HALO20 expression increased,[3]; [32],2 fold
same,Haloperidol Effect on Transcript Level: HALO19 Ribosomal protein L18a,[4]; [31],+1.8
same,HALO19 (L18a) transcription increased,[4]; [32],1.8 fold
same,Haloperidol Effect on Transcript Level: HALO29 L1 retrotransposon ORF2,[5]; [31],−3.3
same,L1 retrotransposon ORF2 expression decreases (text: HALO32),[5]; [32],3.3 fold
same,Haloperidol Effect on Transcript Level: HALO23 Neurogranin,[6]; [31],+1.1
same,HALO23 (neurogranin) expression increased,[6]; [32],1.1 fold
same,Haloperidol Effect on Transcript Level: HALO7,[7]; [31],−1.7
same,HALO7 expression diminished,[7]; [32],1.7 fold
same,Haloperidol Effect on Transcript Level: HALO11,[8]; [31],−2.0
same,HALO11 expression increased,[8]; [32],4 fold
same,Haloperidol Effect on Transcript Level: HALO16,[9]; [31],−8
same,HALO16 expression diminished,[9]; [32],8 fold
same,Haloperidol Effect on Transcript Level: HALO28 Stomach nonmuscle Ca^+2 ATPase,[10]; [31],+2
same,HALO28 (stomach nonmuscle Ca+2 ATPase) expression increased,[10]; [32],2 fold
same,Haloperidol Effect on Transcript Level: HALO10,[11]; [31],−2.0
same,HALO10 expression diminished,[11]; [32],2 fold
same,Haloperidol Effect on Transcript Level: HALO1,[12]; [31],−2.9
same,HALO1 expression decreased,[12]; [32],2.9 fold
same,Haloperidol Effect on Transcript Level: HALO21 CNPII,[13]; [31],−3
same,HALO21 (CNPII) expression decreases,[13]; [32],3.0 folf
same,Haloperidol Effect on Transcript Level: HALO33 NGF1-A,"HALO33, NGF1-A; [31]",−3
same,HALO33 (NGF1-A) expression increased,"HALO33, NGF1-A; [33]",1.6 fold
same,Haloperidol Effect on Transcript Level: HALO26 Cathepsin S,"HALO26, Cathepsin S; [31]",−1.7
same,HALO26 (cathepsin S) expression decreased,"HALO26, Cathepsin S; [32]",1.7 fold
same,Haloperidol Effect on Transcript Level: HALO6,[14]; [31],−2
same,HALO6 expression decreased,[14]; [32],2 fold
same,Haloperidol Effect on Transcript Level: HALO32 L1 retrotransposon mIvi2-rn38,[15]; [31],−5.5
same,L1 retrotransposon ml vi2-m38 expression decreases (text: HALO31),[15]; [32],5.5 fold
same,Haloperidol Effect on Transcript Level: HALO13,[16]; [31],+6.3
same,HALO13 expression increased,[16]; [32],6.3 fold
same,Haloperidol Effect on Transcript Level: HALO18,[17]; [31],−2.5
same,HALO18 expression diminished,[17]; [32],2.5 fold
same,Haloperidol Effect on Transcript Level: HALO9,[18]; [31],+1.6
same,HALO9 expression increased,[18]; [32],1.6 fold
same,Haloperidol Effect on Transcript Level: HALO25 190 kDa ankyrin isoform,[19]; [31],−2.0
same,HALO25 (190 kDA ankyrin isoform) expression decreased,[19]; [32],2.0 fold
same,Haloperidol Effect on Transcript Level: HALO24 V-1 protein,"HALO24, V-1 protein; [31]",−2.0
same,HALO24 (V-1 protein) expression decreased,"HALO24, V-1 protein; [32]",2.0 fold
same,Haloperidol Effect on Transcript Level: HALO17,[20]; [31],−10
same,HALO17 expression diminished,[20]; [32],10 fold
same,Haloperidol Effect on Transcript Level: HALO34 JunB,"HALO34, JunB [X54686]; [31]",+4
same,HALO34 (JunB) expression increased,"HALO34, JunB [X54686]; [33]",4 fold
same,Haloperidol Effect on Transcript Level: HALO2,[21]; [31],−2
same,HALO2 expression decreased,[21]; [32],2 fold
same,Haloperidol Effect on Transcript Level: HALO31 Long interspersed repetitive DNA containing 7 ORFs,[22]; [31],−3.5
same,long interspersed repetitive DNA containing 7 ORF expression decreases (text: HALO30),[22]; [32],3.5 fold
same,Haloperidol Effect on Transcript Level: HALO30 LINE3,[23]; [31],−5
same,LINE3 expression decreases (text: HALO29),[23]; [32],5 fold
same,Haloperidol Effect on Transcript Level: HALO27 D-Amino acid oxidase,[24]; [31],−2.0
same,HALO27 (D-amino acid oxidase) expression decreased,[24]; [32],2.0 fold
same,motor disturbances,rats,motor disturbances that parallel human pathology
same,Inositol monophosphates level,Inisotaol monophsphates,decrease
same,binding activity with sigma receptors,sigma receptors,binding activity
same,Haloperidol Effect on Transcript Level: HALO5,[25],−1.5
same,Haloperidol Effect on Transcript Level: HALO12,[26]; [31],+3
same,HALO12 expression increased,[26]; [32],3 fold
same,Haloperidol Effect on Transcript Level: HALO4,[27],−3
same,Haloperidol Effect on Transcript Level: HALO14,[28]; [31],−5
same,HALO14 expression diminished,[28]; [32],5 fold
same,Haloperidol Effect on Transcript Level: HALO15,[29],+1.0
same,Haloperidol Effect on Transcript Level: HALO3,[30],−2.5
